The results in this text go back to PubChem BioAssay AID1872 (NMMLSC, 2009).

Activity calls are given as the source filed them. How the calls were made is not given here.

Sequence of Regulator of G-protein signaling 4 (Homo sapiens) (P49798 whole entry, looked up): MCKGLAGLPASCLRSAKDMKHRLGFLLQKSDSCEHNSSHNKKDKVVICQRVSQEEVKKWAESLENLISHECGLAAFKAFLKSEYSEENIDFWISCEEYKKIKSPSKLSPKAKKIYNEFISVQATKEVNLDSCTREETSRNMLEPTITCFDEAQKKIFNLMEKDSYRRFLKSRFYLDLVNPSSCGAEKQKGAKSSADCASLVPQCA

One experiment has as its target Regulator of G-protein signaling 4 (Homo sapiens) (UniProt P49798). Description: RGS4-Galphao interaction modulators, dose response, biochemical, bead-based flow cytometry, multiplex (AID 1872). Particulars: Bead-based flow cytometry RGS4-Galphao binding. (In general: Flow cytometry measures light scatter and fluorescence of single cells or particles in a stream.)
For `CC(C)Sc1nc2ccc(N3C(=O)C4CCCCC4C3=O)cc2s1` (configuration not stated), the EC50 – broadly, the midpoint of the concentration-response curve – is > 30 µM (inactive).

Regarding `CCOC(=O)N=Nc1c(O)n(C)c2ccccc12`, the EC50 is > 30 µM (inactive).

For the molecule `CN(C)[C@@H]1C(=O)C(C(=O)NCN2CCCC2)=C(O)[C@@]2(O)C(=O)C3=C(O)c4c(O)cccc4[C@@](C)(O)C3CC12` (some centres not stated), the EC50 is 11.8 µM.

`NS(=O)(=O)c1ccc(N/N=C/c2ccc(O)c(O)c2O)c([N+](=O)[O-])c1`: the EC50 is 3.56 µM.

On to `O=C1CCCC2=C1C(c1cccs1)n1ncnc1N2` (configuration not stated), for which the EC50 entry is “inactive”.

Turning to `CCOC(=O)C1=C(C)NC(C)=C(C(=O)OCCNC(=O)c2cccnc2)C1c1cccc([N+](=O)[O-])c1` (configuration not stated), the EC50 was > 30 µM (inactive).

As for `CCOC(=O)/C(C(=O)Nc1ccccc1Cl)=C1/NC(C)(C)Cc2ccccc21`, the EC50 entry is “inactive”.

On to `COc1ccc(Br)cc1/C=N/Nc1cccc(C(=O)O)c1`, for which the EC50 is > 30 µM (inactive).

Take `O=c1[nH]c(=S)n(Cc2ccco2)c(O)c1C=NCc1cccs1`: the EC50 is > 30 µM (inactive).

Staying with this experiment, now noted: Bead-based flow cytometry RGS4-Galphao binding; measured here: Ki for RGS4-Galphao.
Turning to `CN=c1scc(C)n1/N=C/c1ccc(O)c(O)c1O`, the Ki (commonly a measure of affinity in units of concentration, obtained from inhibition or displacement) worked out at 12 µM.

Turning to `CCN1/C(=C/C=C/C=C/c2sc3ccccc3[n+]2CC)Sc2ccccc21`, the Ki amounted to 2.9 µM.

For `CN(C)c1ncc(C2=C(Cl)C(=O)C(N3CCCC3)=C(Cl)C2=O)s1`, the inhibitory constant (Ki) worked out at 1.95 µM.

`O=C(OCC1O[C@@H](OC(=O)c2cc(O)c(O)c(O)c2)[C@@H](OC(=O)c2cc(O)c(O)c(O)c2)[C@@H](OC(=O)c2cc(O)c(O)c(O)c2)[C@@H]1OC(=O)c1cc(O)c(O)c(O)c1)c1cc(O)c(O)c(O)c1` (some centres not stated) returned a Ki of 0.38 µM.

For `O=C(O)C[C@@H]1C(=O)O[C@@H]2C(COC(=O)c3cc(O)c(O)c(O)c3)O[C@@H](OC(=O)c3cc(O)c(O)c(O)c3)[C@@H](OC(=O)c3cc(O)c(O)c4c3[C@H]1[C@H](O)C(=O)O4)[C@H]2OC(=O)c1cc(O)c(O)c(O)c1` (some centres not stated), the Ki came to 0.88 µM.

For the molecule `CN(C)[C@@H]1C(=O)C(C(=O)NCN2CCCC2)=C(O)[C@@]2(O)C(=O)C3=C(O)c4c(O)cccc4[C@@](C)(O)C3CC12` (some centres not stated), the Ki is 10 µM.

For the molecule `NS(=O)(=O)c1ccc(N/N=C/c2ccc(O)c(O)c2O)c([N+](=O)[O-])c1`, the Ki turned out to be 3.03 µM.

As to `O=C(O[C@@H]1OC2COC(=O)c3cc(O)c(O)c(O)c3-c3c(cc(O)c(O)c3O)C(=O)O[C@@H]([C@H]1O)[C@@H]2O)c1cc(O)c(O)c(O)c1`, the Ki worked out at 3.51 µM.

Molecule `COCCCNC(=O)c1ccc2c3c(onc13)-c1ccccc1C2=O` yielded a Ki of 2.62 µM.

On to `CC1(C)OC(=O)C(=Cc2ccc(-c3ccc(S(N)(=O)=O)cc3)o2)C(=O)O1`, for which the Ki is 8.26 µM.

The molecule `CCC(=O)NC(c1ccc(C)cc1)c1cc([N+](=O)[O-])c2cccnc2c1O` (configuration not stated) came in with a Ki of 10.1 µM.

In the case of `Nc1c(C(=O)NCC2CCCO2)sc2nc3c(c(-c4ccco4)c12)CC/C3=C\c1ccco1` (configuration not stated), the inhibition constant (Ki) was determined as 2.77 µM.

As to `O=C1C(Cl)=C(N2CCCCC2)C(=O)C(Cl)=C1c1cnc(N2CCCCC2)s1`, the Ki is 1.55 µM.

Take `O=C(COc1ccccc1C(=O)N/N=C\c1ccc(O)c(O)c1)N/N=C/c1ccc(O)c(O)c1`: the Ki amounted to 3.24 µM.

Molecule `CCN=c1scc(C)n1/N=C/c1ccc(O)c(O)c1O` gave a Ki of 21.5 µM.

As to `O=C(Cc1csc(N2CCOCC2)n1)N/N=C/c1ccc(O)c(O)c1O`, the Ki is 14.8 µM.

In turn, `CCN(CC)S(=O)(=O)c1cccc(C(=O)N/N=C/c2ccc(O)c(O)c2O)c1` gave a Ki of 4.73 µM.

Regarding `CN1CCN(C2=C(Cl)C(=O)C(c3cnc(N4CCCCC4)s3)=C(Cl)C2=O)CC1`, the Ki was found to be 0.3 µM.

`CC(=O)N(O)CCCCCNC(=O)CCC(=O)N(O)CCCCCNC(=O)CCC(=O)N(O)CCCCCN` came in with a Ki of 1.34 µM.

The molecule `COC(=O)CCC(=O)Nc1sc(C)c(C)c1C(N)=O` gave a Ki of 6.49 µM.

Consider `COc1ccc(C2=CC(=O)C=CC2=O)cc1`, for which the Ki is 19.7 µM.

Molecule `O=C1CCC(=O)N(O)CCCCCNC(=O)CCC(=O)N(O)CCCCCNC(=O)CCC(=O)N(O)CCCCCN1` gave a Ki of 2.2 µM.

Turning to `O=C1OCC2OC(O)C(O)C(O)C2OC(=O)c2cc(O)c(O)c(O)c2-c2c(O)c(O)c3oc(=O)c4c(c(O)c(O)c5oc(=O)c2c3c54)-c2c1cc(O)c(O)c2O` (configuration not stated), the Ki was found to be 2.05 µM.

Molecule `COc1ccc(OC)c(CCNC(=O)Cn2sc3nc(C)cc(C)c3c2=O)c1` showed a Ki of 5.6 µM.

`CCNc1ccc2noc3c2c1C(=O)c1ccccc1-3` came in with a Ki of 22.5 µM.

On to `CCC(=O)NC1=C(Cl)C(=O)C(NC(=O)CC)=C(Cl)C1=O`, for which the Ki is 4.61 µM.

`NS(=O)(=O)c1ccc(CNC(=O)/C=C/c2ccco2)cc1` came in with a Ki of 7.78 µM.

Regarding `Cc1cc(Cl)ccc1N=c1ssnc1Cl`, the inhibition constant Ki turned out to be 4.58 µM.
